Measurements as given in patent publication US4323602A, “Water repellent and preservative for wood products” (priority 1980, dated 1982).

System: Lenzites trabea (Madison strain 617)
Experiment: NWMA Soil-Block Test (fungicide effectiveness, wood decay)
Conditions: 5.4 times the threshold concentration (NWMA)
Experimental: The product of Table 2, diluted with four parts water, was tested as a fungicide using a standard National Woodwork Manufacturers Association (NWMA) Soil-Block Test to determine and compare effectiveness with a Standard Solvent Based 5% Penta treating solution. This test method is used to determine the minimum amount of preservative that is effective in preventing decay of selected species of wood by selected fungi under optimum laboratory conditions.
The test method may be briefly summarized as follows: Conditioned blocks of wood are impregnated with solutions of a preservative in water or organic solvent to form one or more series of gradient retentions of the preservative in the blocks. After periods of weathering, the impregnated blocks are exposed to the wood-destroying fungus, Lenzites trabea (Madison strain 617). The minimum amount of preservative which protects the impregnated blocks against decay by the fungus is defined as the threshold retention for that organism. Failure to protect is evidenced by loss of wood from the treated wood blocks, as indicated by a loss in weight.
The threshold retention expressed in pounds of treating solution per cubic foot of wood represents the minimum amount of preservative necessary to protect wood from decay. […]

CCCCNC(=O)OCC#CI [Example 3-Iodo, 3-iodo-2-propynyl butyl carbamate] was tested, and the “Use Concentration” value was 0.27%.
